Measurements from the NIST ThermoML archive (doi:10.1016/j.jct.2011.06.019).

Assay: molar heat capacity at constant pressure; xn = mol fraction of the nth substance listed
Conditions: 313.15 K, Liquid, Flow calorimetry

CCCCCCC [heptane] + CCO
molar heat capacity at constant pressure [J/K/mol]
Conditions	x1 = 0.1	x1 = 0.2001	x1 = 0.3	x1 = 0.4001	x1 = 0.5001	x1 = 0.6	x1 = 0.6999	x1 = 0.7999	x1 = 0.9	x1 = 1
100 kPa	134.2	149.4	163.6	176.8	190.9	202.9	215.3	224.9	234.8	233.8
5000 kPa	132.5	147.1	160.8	174.2	187.6	200	211.9	221.4	230.4	230.3
10000 kPa	130.7	146.1	158.6	171.6	185	196.7	209	218.7	226.9	226.2
15000 kPa	129.5	143.6	156.7	169.4	182.5	194.8	205.9	215.9	223.8	223.1
20000 kPa	128.4	142.4	155.3	168.3	180.9	193.1	204	213.3	222.6	221.6

Cc1ccccc1 [toluene] + CCO
molar heat capacity at constant pressure [J/K/mol]
Conditions	x1 = 0.1003	x1 = 0.2007	x1 = 0.2999	x1 = 0.4002	x1 = 0.5	x1 = 0.6001	x1 = 0.7	x1 = 0.8	x1 = 0.9001	x1 = 1
100 kPa	130.1	138.3	146.1	153.2	159.1	163.7	167.7	169.5	168.5	163.5
5000 kPa	128.7	136.6	144.2	151.3	157.1	162	165.3	167.5	167.3	161.3
10000 kPa	127.3	135.5	143.2	150	155.7	160.2	164.1	166.3	165.9	159.9
15000 kPa	126.1	134.4	141.9	148.5	154.3	158.6	162.6	164.9	165.2	158.9
20000 kPa	125.1	133.6	140.9	147.5	153.4	158.1	161.8	164	163.6	157.8
